Columns and labels:
[1] = test system: complementary DNA; assay: Determining the melting temperatures (complementary DNA); type: binding; settings: for Tm (DNA): 140 mM KCl, 10 mM sodium dihydrogen phosphate, 0.1 mM EDTA (pH 7.4), oligomer 0.5 to 1 OD260 per ml; for degree of binding towards complementary DNA and RNA compared with the uncharged PNA (reference substance): melting temperature experiment
Description: (§1) The melting temperatures were determined using an HP 8452A diode-array spectrophotometer, an HP 89090A Peltier element and HP Temperature Control Software Rev. B5.1 (from Hewlett Packard). Measurements were taken in 0.5° C./min steps in 140 mM KCl, 10 mM sodium dihydrogen phosphate, 0.1 mM EDTA (pH 7.4) as the buffer. The oligomer concentration was from 0.5 to 1 OD260 per ml.

[2] = test system: complementary RNA; assay: Determining the melting temperatures (complementary RNA); type: binding; settings: 140 mM KCl, 10 mM sodium dihydrogen phosphate, 0.1 mM EDTA (pH 7.4); oligomer 0.5 to 1 OD260 per ml
Description: as §1

[3] = test system: COS cells; assay: Determining cell uptake after fluorescence labeling; type: cell-based; settings: PNA solution 10 μM, 37° C., examined after 2, 4 and 16 hours
Description: COS cells were allowed to grow to confluence in Dulbecco's MEM, which was supplemented with 10% FCS, in 5 cm Petri dishes. The cells were washed twice with serum-free DMEM. An area of approx. 1 cm^2 was scratched out in the middle of the Petri dish using a sterile needle. The PNA solution (10 μM) under investigation was applied in this area. The dish was incubated at 37° C. under a CO2 atmosphere. After 2, 4 and 16 hours, the cells were examined by fluorescence microscopy. For this, the cells were washed four times with serum-free DMEM, covered with a cover slip, and evaluated under the fluorescence microscope or by phase contrast. PNA-5 and PNA-6 were examined by fluorescence microscopy.

[4] = test system: REH cells (human pre-B leukemia cells, DSM ACC 22); assay: Inhibiting cell proliferation; type: cell-based; settings: 10 μM, after >4 days of incubation
Description: The sequence of PNA-6 is directed against the translation start of the Ha-ras mRNA. REH cells (human pre-B leukemia cells, DSM ACC 22) or A549 tumor cells were cultured, at 37° C. and under 5% CO2, in OptiMEM (Gibco BRL) containing 10% fetal calf serum (FCS, GIBCO-BRL). The cell density for the assay was approx. 1×10^6/ml. The PNA-6 (10 μM) was incubated with the cells in 24-well plates. After incubating at 37° C. and under 5% CO2 for 96 hours, the cell density was determined. Mean values for the cell density were determined from 3 individual wells at a given PNA concentration. […] After >4 days of incubation, the inhibition brought about by PNA-6 was greater than that brought about by a corresponding phosphorothioate oligonucleotide.

| Substance | Tm (DNA) [1] [°C] | Tm (RNA) [2] [°C] | cell uptake by fluorescence microscopy, compared with the PNA with no hexadecyl radical [3] | inhibition of proliferation compared with a corresponding phosphorothioate oligonucleotide [4] | degree of binding towards complementary DNA and RNA compared with the uncharged PNA (reference substance) [1] |
| --- | --- | --- | --- | --- | --- |
| Ac-HN-tat tcc gtc at-hex [Reference, reference compound] | 41.9 | 56.6 |  |  |  |
| C16-p-t(oeg) at tcc gtc at-aminohexyl-p-fluorescein [PNA-6] | 44.1 | 56.9 | taken up more efficiently | greater | equally good or better degree of binding |
| p-t(oeg) at tcc gtc at-aminohexyl-p-fluorescein [PNA-5] | 41.8 | 56.9 |  |  | equally good or better degree of binding |

— US7550582B2, “Polyamide nucleic acid derivatives and agents, and processes for preparing them” (sanofi-aventis Deutschland GmbH, priority 2000, dated 2009)
